The values below come from ChEMBL document CHEMBL5442741, “ASAP - In vitro kinase profile” (2024).

Experiment [1] has as its target CDK6/cyclin D3 (Homo sapiens) (UniProt P30281+Q00534). Put plainly: Enzymatic radiometric [Km ATP] KinaseProfiler LeadHunter assay, kinase: CDK6/cyclinD3, catalogue number: 14-519KP The assay has been performed by Eurofins Discovery. It is filed as protein-complex assay. The settings on record: ATP concentration 200.0 uM, Test compound concentration 10.0 uM.
Experiment [2] has as its target CDK9/cyclin T1 (Homo sapiens) (UniProt O60563+P50750). Kind of experiment: Enzymatic radiometric [Km ATP] KinaseProfiler LeadHunter assay, kinase: CDK9/cyclin T1, catalogue number: 14-685KP The assay has been performed by Eurofins Discovery. It is filed as protein-complex assay. The settings on record: ATP concentration 45.0 uM, Test compound concentration 10.0 uM.

Experiment [3] deals with Ephrin type-A receptor 5 (Homo sapiens) (UniProt P54756). Kind of experiment: Enzymatic radiometric [Km ATP] KinaseProfiler LeadHunter assay, kinase: EphA5, catalogue number: 14-639KP The assay has been performed by Eurofins Discovery. The settings on record: ATP concentration 10.0 uM, Test compound concentration 10.0 uM.
Ephrin type-A receptor 5 (Homo sapiens), sequence (P54756 whole entry): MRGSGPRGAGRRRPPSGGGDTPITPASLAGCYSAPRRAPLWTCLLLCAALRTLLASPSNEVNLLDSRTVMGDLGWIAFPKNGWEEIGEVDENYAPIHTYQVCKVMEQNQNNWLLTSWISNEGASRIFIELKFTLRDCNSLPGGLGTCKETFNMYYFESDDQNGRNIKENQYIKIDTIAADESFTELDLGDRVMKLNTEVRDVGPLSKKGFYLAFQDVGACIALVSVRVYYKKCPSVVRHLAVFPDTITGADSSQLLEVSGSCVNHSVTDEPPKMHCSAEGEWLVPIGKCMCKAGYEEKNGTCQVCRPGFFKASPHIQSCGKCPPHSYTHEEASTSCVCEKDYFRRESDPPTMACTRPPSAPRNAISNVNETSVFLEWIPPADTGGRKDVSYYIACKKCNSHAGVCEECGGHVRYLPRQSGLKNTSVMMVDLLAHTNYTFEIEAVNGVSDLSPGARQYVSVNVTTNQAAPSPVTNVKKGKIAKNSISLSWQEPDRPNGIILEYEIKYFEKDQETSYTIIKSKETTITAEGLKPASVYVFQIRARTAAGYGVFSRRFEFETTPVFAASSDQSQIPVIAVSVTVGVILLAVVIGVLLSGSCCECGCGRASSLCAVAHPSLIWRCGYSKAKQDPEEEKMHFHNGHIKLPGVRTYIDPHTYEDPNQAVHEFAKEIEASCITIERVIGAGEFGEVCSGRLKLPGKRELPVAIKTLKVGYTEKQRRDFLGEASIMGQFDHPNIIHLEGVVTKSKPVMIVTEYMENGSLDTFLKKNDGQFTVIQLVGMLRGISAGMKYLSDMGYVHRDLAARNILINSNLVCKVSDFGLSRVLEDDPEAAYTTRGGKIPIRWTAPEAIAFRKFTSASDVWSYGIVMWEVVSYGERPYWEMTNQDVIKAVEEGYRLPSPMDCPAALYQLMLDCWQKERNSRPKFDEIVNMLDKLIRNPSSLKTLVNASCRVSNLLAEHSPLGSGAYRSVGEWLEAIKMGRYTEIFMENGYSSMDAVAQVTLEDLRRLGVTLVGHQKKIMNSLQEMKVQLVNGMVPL
Experiment [4] concerns the target Serine/threonine-protein kinase 10 (Homo sapiens) (UniProt O94804). Kind of experiment: Enzymatic radiometric [Km ATP] KinaseProfiler LeadHunter assay, kinase: LOK, catalogue number: 14-686KP The assay has been performed by Eurofins Discovery. Conditions: ATP concentration 120.0 uM, Test compound concentration 10.0 uM.
The target of experiment [5] is Tyrosine-protein kinase Lyn (Homo sapiens) (UniProt P07948). Put plainly: Enzymatic radiometric [Km ATP] KinaseProfiler LeadHunter assay, kinase: Lyn, catalogue number: 14-510KP The assay has been performed by Eurofins Discovery. Conditions: ATP concentration 70.0 uM, Test compound concentration 10.0 uM.
Tyrosine-protein kinase Lyn (Homo sapiens), sequence (P07948 2-512 limits assumed): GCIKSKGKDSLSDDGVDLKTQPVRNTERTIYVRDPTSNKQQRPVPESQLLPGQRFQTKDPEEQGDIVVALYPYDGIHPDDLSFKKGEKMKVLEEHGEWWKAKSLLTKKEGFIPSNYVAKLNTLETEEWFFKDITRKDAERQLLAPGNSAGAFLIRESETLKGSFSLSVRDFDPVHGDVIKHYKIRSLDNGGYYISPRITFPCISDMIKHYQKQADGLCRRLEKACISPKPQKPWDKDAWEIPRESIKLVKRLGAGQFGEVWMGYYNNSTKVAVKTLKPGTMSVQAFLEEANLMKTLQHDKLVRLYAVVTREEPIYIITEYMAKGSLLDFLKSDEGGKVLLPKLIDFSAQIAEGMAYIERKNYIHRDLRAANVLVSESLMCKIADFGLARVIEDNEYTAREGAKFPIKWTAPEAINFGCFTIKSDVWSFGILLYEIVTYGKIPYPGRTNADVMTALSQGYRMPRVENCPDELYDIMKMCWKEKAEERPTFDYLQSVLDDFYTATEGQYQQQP
Experiment [6] deals with Protein kinase C alpha type (Homo sapiens) (UniProt P17252). Put plainly: Enzymatic radiometric [Km ATP] KinaseProfiler LeadHunter assay, kinase: PKC-alpha, catalogue number: 14-484KP The assay has been performed by Eurofins Discovery. Conditions: ATP concentration 45.0 uM, Test compound concentration 10.0 uM.
In experiment [7] the target is T1, cGMP-dependent protein kinase 1 (Homo sapiens) (UniProt Q13976).
T1 sequence (whole entry): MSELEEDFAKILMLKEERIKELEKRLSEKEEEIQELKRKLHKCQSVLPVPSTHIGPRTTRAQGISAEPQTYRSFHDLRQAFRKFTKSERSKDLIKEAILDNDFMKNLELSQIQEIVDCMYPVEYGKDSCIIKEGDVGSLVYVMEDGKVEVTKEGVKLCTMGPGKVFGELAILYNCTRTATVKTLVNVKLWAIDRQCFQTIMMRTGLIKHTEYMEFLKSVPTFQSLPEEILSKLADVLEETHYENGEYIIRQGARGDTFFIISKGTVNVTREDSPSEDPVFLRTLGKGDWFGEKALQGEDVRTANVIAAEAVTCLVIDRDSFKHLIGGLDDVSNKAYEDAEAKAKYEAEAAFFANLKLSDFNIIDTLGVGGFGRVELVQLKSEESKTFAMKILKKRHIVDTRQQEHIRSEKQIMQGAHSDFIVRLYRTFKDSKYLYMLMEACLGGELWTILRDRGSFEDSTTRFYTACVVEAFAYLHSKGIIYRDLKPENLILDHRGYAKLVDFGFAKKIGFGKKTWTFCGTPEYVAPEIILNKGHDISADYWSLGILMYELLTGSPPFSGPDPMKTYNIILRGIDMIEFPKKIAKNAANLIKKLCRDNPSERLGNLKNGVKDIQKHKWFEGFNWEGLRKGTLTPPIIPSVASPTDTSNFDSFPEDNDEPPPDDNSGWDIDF
Kind of experiment: Enzymatic radiometric [Km ATP] KinaseProfiler LeadHunter assay, kinase: PKG1-alpha, catalogue number: 14-688KP The assay has been performed by Eurofins Discovery. Conditions: ATP concentration 90.0 uM, Test compound concentration 10.0 uM.

Experiment [8] concerns the target T2, Tyrosine-protein kinase receptor TYRO3 (Homo sapiens) (UniProt Q06418).
T2 sequence (whole entry): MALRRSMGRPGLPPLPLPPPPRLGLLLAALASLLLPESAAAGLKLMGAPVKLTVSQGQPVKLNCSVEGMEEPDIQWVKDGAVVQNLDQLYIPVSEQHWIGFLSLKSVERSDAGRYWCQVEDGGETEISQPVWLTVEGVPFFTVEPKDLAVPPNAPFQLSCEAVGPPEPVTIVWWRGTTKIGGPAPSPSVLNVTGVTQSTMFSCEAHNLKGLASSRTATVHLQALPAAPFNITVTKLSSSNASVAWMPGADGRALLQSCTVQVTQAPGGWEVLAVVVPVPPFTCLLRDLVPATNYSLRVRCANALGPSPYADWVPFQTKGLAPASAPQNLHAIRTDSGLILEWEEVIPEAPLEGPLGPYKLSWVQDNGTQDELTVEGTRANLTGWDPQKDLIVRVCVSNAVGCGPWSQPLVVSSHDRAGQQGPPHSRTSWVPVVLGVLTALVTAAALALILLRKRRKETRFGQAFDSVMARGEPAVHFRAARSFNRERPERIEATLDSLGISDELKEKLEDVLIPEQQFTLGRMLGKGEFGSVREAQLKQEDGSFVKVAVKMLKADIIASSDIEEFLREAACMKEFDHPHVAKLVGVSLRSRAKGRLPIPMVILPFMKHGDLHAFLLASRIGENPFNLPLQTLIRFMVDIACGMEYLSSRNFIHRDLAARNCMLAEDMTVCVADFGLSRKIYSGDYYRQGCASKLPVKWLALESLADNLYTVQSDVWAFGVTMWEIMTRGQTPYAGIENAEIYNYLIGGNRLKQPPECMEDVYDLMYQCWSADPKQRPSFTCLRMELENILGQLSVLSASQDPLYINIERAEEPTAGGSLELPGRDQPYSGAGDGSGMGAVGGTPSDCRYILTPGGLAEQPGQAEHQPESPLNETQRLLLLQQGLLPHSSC
Kind of experiment: Enzymatic radiometric [Km ATP] KinaseProfiler LeadHunter assay, kinase: Rse, catalogue number: 14-535KP The assay has been performed by Eurofins Discovery. Conditions: ATP concentration 45.0 uM, Test compound concentration 10.0 uM.

“And” between values parts separate entries of the source, which are not always exact repeats. Identical values can stand only once.

Serine/threonine-protein kinase 10 (Homo sapiens), sequence (O94804 whole entry, looked up): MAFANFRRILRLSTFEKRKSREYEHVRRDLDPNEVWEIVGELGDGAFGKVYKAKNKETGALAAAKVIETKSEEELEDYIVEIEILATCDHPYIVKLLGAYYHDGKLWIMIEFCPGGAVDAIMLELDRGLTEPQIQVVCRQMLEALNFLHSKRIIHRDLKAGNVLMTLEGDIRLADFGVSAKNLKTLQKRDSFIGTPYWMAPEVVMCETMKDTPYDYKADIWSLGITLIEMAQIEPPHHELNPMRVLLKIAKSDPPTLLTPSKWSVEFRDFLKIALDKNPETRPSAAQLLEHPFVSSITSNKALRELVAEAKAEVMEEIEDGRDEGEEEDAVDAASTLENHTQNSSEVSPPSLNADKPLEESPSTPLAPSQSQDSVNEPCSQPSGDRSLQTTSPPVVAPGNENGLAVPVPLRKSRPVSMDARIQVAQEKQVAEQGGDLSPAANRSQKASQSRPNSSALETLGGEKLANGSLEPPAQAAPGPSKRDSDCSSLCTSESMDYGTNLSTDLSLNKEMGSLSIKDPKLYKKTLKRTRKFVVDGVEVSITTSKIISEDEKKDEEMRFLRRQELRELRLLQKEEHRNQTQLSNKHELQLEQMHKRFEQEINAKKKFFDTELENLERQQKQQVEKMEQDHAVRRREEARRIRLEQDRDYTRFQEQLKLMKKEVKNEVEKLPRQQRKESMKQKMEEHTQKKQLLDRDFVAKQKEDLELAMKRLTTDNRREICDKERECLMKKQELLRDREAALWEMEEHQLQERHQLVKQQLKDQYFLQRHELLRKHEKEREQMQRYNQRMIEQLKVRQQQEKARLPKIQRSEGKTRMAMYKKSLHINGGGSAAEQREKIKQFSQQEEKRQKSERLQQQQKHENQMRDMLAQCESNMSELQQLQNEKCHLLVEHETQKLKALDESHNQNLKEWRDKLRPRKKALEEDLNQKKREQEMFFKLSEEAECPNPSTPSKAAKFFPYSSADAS

For the molecule `COc1ccc([C@H](Cc2nnn[nH]2)NC(=O)c2ncnc3[nH]ccc23)cc1`, the Activity in experiment [1] is 102%; in experiment [2] it was 109%; in experiment [3], 102%; in experiment [4] it was 102%; in experiment [5], 108%; in experiment [6], 93%. The Activity came out at 121% in experiment [7] and 100% in experiment [8].

With `CC(C)[C@H](Nc1ncnc2[nH]c(-c3cnn(C)c3C#N)cc12)c1ccc2c(n1)OCCO2`, the Activity came to 102% in experiment [1]; 79% in experiment [2]; 102% in experiment [3]; 45% in experiment [4]; 79% in experiment [5]; 130% in experiment [7]. The molecule further yielded an Activity in experiment [8] of 105%.

For the molecule `CC(C)[C@@H](Nc1ncnc2[nH]ccc12)c1ccc2c(c1)S(=O)(=O)CCC2`, the Activity in experiment [1] worked out at 99%; in experiment [2], 114%; in experiment [3], 110%; in experiment [4] it was 104%; in experiment [5] it was 112%; in experiment [6], 104%. The Activity in experiment [7] stood at 88%; in experiment [8] it was 115%.

For `C[C@H](C(=O)O)[C@@H](NC(=O)c1ncnc2[nH]ccc12)c1ccc(Br)cc1`, the Activity in experiment [1] was determined as 97%; in experiment [2], 103%; in experiment [3] it was 99%; in experiment [4], 97%; in experiment [5] it was 94%; in experiment [6], 108%. Further, the values for the Activity in experiment [7] and in experiment [8] were 118% and 87%, respectively.

For the molecule `COc1ccc([C@@H](Cc2nnn[nH]2)NC(=O)c2ncnc3[nH]ccc23)cc1`, the Activity was 100% in experiment [1]; 117% in experiment [2]; 106% in experiment [3]; 96% in experiment [4]; 111% in experiment [5]; 95% in experiment [6]. Also, the Activity in experiment [7] turned out to be 95%; in experiment [8] it was 88%.

On to `CC(C)[C@@H](Nc1ncnc2[nH]c(C(=O)N[C@@H]3CCN(C)C3)cc12)c1ccc2c(c1)S(=O)(=O)CCC2`, for which the Activity in experiment [1] was determined as 99%; in experiment [2] it was 108%; in experiment [3], 100%; in experiment [4], 99%; in experiment [5] it was 107%; in experiment [6], 101%. The Activity was 116% in experiment [7] and 107% in experiment [8].

For `Cn1ncc(-c2cc3c(N[C@@H](c4ccc5c(n4)OCCO5)C(C)(C)C)ncnc3[nH]2)c1C#N`, the Activity amounted to 130% in experiment [2]; 102% in experiment [3]; 122% in experiment [4]; 101% in experiment [5]; 87% in experiment [6]; 127% in experiment [7]. The Activity in experiment [8] amounted to 110%.

For `Cc1nn(C)cc1-c1cc2c(N[C@H](c3ccc4c(c3)S(=O)(=O)CCC4)C(C)C)ncnc2[nH]1`, the Activity in experiment [1] worked out at 106%; in experiment [2], 57%; in experiment [3], 74%; in experiment [4], 93%; in experiment [5], 48%; in experiment [6] it was 93%. Also, the Activity in experiment [7] came to 128%; in experiment [8], 96%.

`CC(C)[C@H](Nc1ncnc2[nH]ccc12)c1ccc2c(c1)S(=O)(=O)CCC2`: the Activity in experiment [1] was 105%; in experiment [2], 112%; in experiment [3], 102%; in experiment [4], 102%; in experiment [5], 104%; in experiment [6] it was 98%. The Activity was 123% in experiment [7] and 86% in experiment [8].

Turning to `CC(C)[C@@H](Nc1ncnc2[nH]c(-c3cnn(C)c3C#N)cc12)c1ccc2c(n1)OCCO2`, the Activity in experiment [3] was 91% and 90%; in experiment [6], 90% and 99%; in experiment [7] it was 100% and 123%; in experiment [8], 116% and 107%.

On to `CNC(=O)Cn1cc(-c2cc3c(N[C@@H](c4ccc5c(c4)S(=O)(=O)CCC5)C(C)C)ncnc3[nH]2)cn1`, for which the Activity in experiment [1] was determined as 107%; in experiment [2], 61%; in experiment [3], 80%; in experiment [4], 83%; in experiment [5], 75%; in experiment [6], 95%. The results for the Activity in experiment [7] and in experiment [8] were 120% and 89%, respectively.

With `CNCc1cc(-c2cc3c(N[C@@H](c4ccc5c(c4)S(=O)(=O)CCC5)C(C)C)ncnc3[nH]2)co1`, the Activity in experiment [1] was 92%; in experiment [2], 40%; in experiment [3], 78%; in experiment [4], 92%; in experiment [5] it was 47%; in experiment [6], 99%. Also, the Activity in experiment [7] was determined as 115%; in experiment [8], 81%.
